Legend:
Assay type in all cases: cell-based
PPARα = target: T1, PPARα (Homo sapiens, UniProt Q07869); experiment: Cross curve PPAR transactivation test (PPARα); conditions: HeLN cells stably transfected with ERE-βGlob-Luc-SV-Neo and Gal-hPPARα; cross curves against reference agonist, Schild regression; read-out: PPAR alpha Kd app
T1 construct: It is a handle made for the test, not a second protein
T1 sequence (Q07869 200-468 limits assumed): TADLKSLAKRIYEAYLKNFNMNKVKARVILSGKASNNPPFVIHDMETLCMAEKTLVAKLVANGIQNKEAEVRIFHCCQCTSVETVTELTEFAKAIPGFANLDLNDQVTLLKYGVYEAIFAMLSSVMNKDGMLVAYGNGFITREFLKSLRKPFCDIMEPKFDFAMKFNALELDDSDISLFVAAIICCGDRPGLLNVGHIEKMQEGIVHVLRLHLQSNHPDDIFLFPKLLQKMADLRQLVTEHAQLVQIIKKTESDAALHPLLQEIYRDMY
Protocol: (§1) The activation of receptors with an agonist (activator) in HeLN cells leads to the expression of a reporter gene, luciferase, which, in the presence of a substrate, generates light. The modulation of the receptors is measured as quantity of luminescence produced after incubating the cells in the presence of a reference agonist. The ligands will displace the agonist from its site. The measurement of the activity is performed by quantification of the light produced. This measurement makes it possible to determine the modulatory activity of the compounds according to the invention by determining the constant which is the affinity of the molecule for the receptor. Since this value can fluctuate according to the basal activity and the expression of the receptor, it is called apparent Kd (KdApp in nM).
(§2) To determine this constant, “cross curves” for the product to be tested against a reference agonist are produced in a 96-well plate: 10 concentrations of the test product plus a concentration 0 are placed in a line, and 7 concentrations of the agonist plus one concentration 0 are placed in a column. This is 88 measurement points for 1 product and 1 receptor. The 8 remaining wells are used for repeatability controls. […]
(§3) The various dilutions of the test products and of the reference ligand are added in an amount of 5 μl per well. […] After 5 minutes, the plates are read by the luminescence reader.

PPARδ = target: T2, PPARδ (Homo sapiens, UniProt Q03181); experiment: Cross curve PPAR transactivation test (PPARδ); conditions: HeLN cells stably transfected with ERE-βGlob-Luc-SV-Neo and Gal-hPPARδ; cross curves against reference agonist, Schild regression; read-out: PPAR delta Kd app
T2 construct: It is a handle made for the test, not a second protein
T2 sequence (Q03181 211-441 limits assumed): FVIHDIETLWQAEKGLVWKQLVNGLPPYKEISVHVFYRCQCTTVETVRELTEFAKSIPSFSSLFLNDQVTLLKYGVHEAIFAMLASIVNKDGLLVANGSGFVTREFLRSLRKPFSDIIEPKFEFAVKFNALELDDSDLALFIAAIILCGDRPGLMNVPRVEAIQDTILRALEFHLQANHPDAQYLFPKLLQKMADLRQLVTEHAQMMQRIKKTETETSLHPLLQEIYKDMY
Protocol: as §1, §2, §3

PPARγ = target: T3, PPARγ (Homo sapiens, UniProt P37231); experiment: Cross curve PPAR transactivation test (PPARγ); conditions: HeLN cells stably transfected with ERE-βGlob-Luc-SV-Neo and Gal-hPPARγ; cross curves against reference agonist, Schild regression; read-out: PPAR gamma Kd app
T3 construct: It is a handle made for the test, not a second protein
T3 sequence (P37231 238-505 limits assumed): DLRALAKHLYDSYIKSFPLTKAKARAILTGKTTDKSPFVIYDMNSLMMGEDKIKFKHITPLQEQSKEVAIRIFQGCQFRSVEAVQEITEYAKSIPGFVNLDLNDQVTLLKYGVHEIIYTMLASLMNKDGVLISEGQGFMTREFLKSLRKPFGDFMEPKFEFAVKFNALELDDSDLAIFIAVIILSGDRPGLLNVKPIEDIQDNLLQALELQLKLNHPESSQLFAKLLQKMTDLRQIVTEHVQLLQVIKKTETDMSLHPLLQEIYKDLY
Protocol: as §1, §2, §3

Structure (SMILES)	Kd (PPARα) [µM]	Kd (PPARδ) [µM]	Kd (PPARγ) [µM]
O=C(O)Cc1cccc(Sc2ccc(N(CCc3ccccc3)C(=O)NC3CCCCC3)cc2)c1 [Example 18b, {3-[4-(3-Cyclohexyl-1-phenethylureido)phenylsulfanyl]phenyl}acetic acid]	0.25	0.015	0.03
CCCCCCCN(C(=O)NCCc1ccccc1)c1cccc(Sc2cccc(CC(=O)O)c2)c1 [Example 25b, {3-[3-(1-Heptyl-3-phenethylureido)phenylsulfanyl]phenyl}acetic acid]		0.06	0.5

Reference: patent US20060035969A1, “Novel modulators of the PPAR-type receptors and cosmetic/pharmaceutical compositions comprised thereof” (GALDERMA RESEARCH & DEVELOPMENT, S.N.C., priority 2003, published 2006)
